Values quoted from earlier work in patent US20050282773A1, “Modified polysaccharides in combination with anti-cancer drugs for enhanced treatment of cancer” (Pro-Pharmaceuticals, Inc., priority 2004, published 2005).

Key:
B16 melanoma cells = settings: in vivo
L-1 sarcoma cells = settings: in vivo

Compound	metastasis of B16 melanoma cells (B16 melanoma cells)	liver metastasis of L-1 sarcoma cells (L-1 sarcoma cells)
CC(=O)N[C@H]1[C@H](O[C@H]2[C@@H](O)[C@@H](CO)O[C@@H](O[C@H]3[C@H](O)[C@@H](O)C(O)O[C@@H]3CO)[C@@H]2O)O[C@H](CO)[C@@H](O)[C@@H]1O[C@@H]1O[C@H](CO)[C@H](O)[C@H](O)[C@H]1O (stereo partly shown) [lacto-N-tetrose]	inhibit	–
arabinogalactose	–	inhibited
O=C[C@H](O)[C@@H](O)[C@@H](O)[C@H](O)CO [D-galactose]	–	inhibited
CO[C@H]1O[C@H](CO)[C@@H](O[C@@H]2O[C@H](CO)[C@H](O)[C@H](O)[C@H]2O)[C@H](O)[C@H]1O [methyl-α-D-lactoside]	inhibit	–
